ChEMBL document CHEMBL5143672, “New diarylpentanoids and chalcones as potential antimicrobial adjuvants” (2022)
Converted amounts (≈) assume the structure as drawn.

Experiments:
Escherichia coli [1] = experiment: Antibacterial activity against Escherichia coli ATCC 25922 assessed as inhibition of bacterial growth by broth microdilution method; format: functional
Pseudomonas aeruginosa [2] = experiment: Antibacterial activity against Pseudomonas aeruginosa ATCC 27853 assessed as inhibition of bacterial growth by broth microdilution method; format: functional
Salmonella typhimurium = experiment: Antibacterial activity against Salmonella enterica serovar typhimurium SL1344 (SE03) assessed as inhibition of bacterial growth by broth microdilution method; format: functional, Salmonella enterica subsp. enterica serovar Typhimurium
Staphylococcus aureus [3] = experiment: Antibacterial activity against Staphylococcus aureus ATCC 25923 assessed as inhibition of bacterial growth by broth microdilution method; format: functional
Enterococcus faecalis [4] = experiment: Antibacterial activity against Enterococcus faecalis ATCC 29212 assessed as inhibition of bacterial growth by broth microdilution method; format: functional
Staphylococcus aureus [5] = experiment: Antibacterial activity against methicillin and ofloxacin-resistant Staphylococcus aureus 272123 assessed as inhibition of bacterial growth by broth microdilution method; format: functional
Candida albicans [6] = experiment: Antifungal activity against Candidia albicans ATCC 10231 assessed as inhibition of fungal growth by broth microdilution method; format: functional
Aspergillus fumigatus = experiment: Antifungal activity against Aspergillus fumigatus ATCC 204305 assessed as inhibition of fungal growth by broth microdilution method; format: functional
Trichophyton rubrum = experiment: Antifungal activity against Trichophyton rubrum FF5 assessed as inhibition of fungal growth by broth microdilution method; format: functional
Escherichia coli [7] = experiment: Antimicrobial adjuvant activity against ESBL-producing Escherichia coli SA/2 assessed as potentiation of cefotaxime-induced antibacterial activity by measuring fold reduction in cefotaxime MIC at 64 ug/ml by broth microdilution method; format: functional; conditions: dose 64 µg/ml
Enterococcus faecalis [8] = experiment: Antimicrobial adjuvant activity against Enterococcus faecalis B3/101 assessed as potentiation of vancomycin-induced antibacterial activity by measuring fold reduction in vancomycin MIC at 64 ug/ml by broth microdilution method; format: functional; conditions: dose 64 µg/ml
[9] = system: Salmonella enterica subsp. enterica serovar Typhimurium; experiment: Inhibition of Multidrug resistance efflux pump in Salmonella enterica serovar typhimurium SL1344 (SE03) assessed as relative fluorescence index using ethidium bromide as substrate at 50 uM by fluorescence based analysis
[10] = Inhibition of Multidrug resistance efflux pump in Staphylococcus aureus 272123 assessed as relative fluorescence index using ethidium bromide as substrate at 50 uM by fluorescence based analysis
Staphylococcus aureus [11] = experiment: Inhibition of biofilm formation in Staphylococcus aureus ATCC 25923 at 100 uM incubated for 48 hrs by crystal violet staining based analysis; format: functional
Staphylococcus aureus [12] = experiment: Inhibition of biofilm formation in Staphylococcus aureus 272123 at 100 uM incubated for 48 hrs by crystal violet staining based analysis; format: functional
[13] = Inhibition of quorum sensing system in Chromobacterium violaceum wild type 85 assessed as reduction in pigment production incubated for 24 to 48 hrs; conditions: time 24-48 hrs
Serratia marcescens = experiment: Inhibition of quorum sensing system in Serratia marcescens AS-1 assessed as reduction in pigment production incubated for 24 to 48 hrs; conditions: time 24-48 hrs
[14] = Inhibition of quorum sensing system in Chromobacterium violaceum CV026 assessed as reduction in pigment production co-cultured with Sphingomonas paucimobilis Ezf 10-17 for 24 to 48 hrs; conditions: time 24-48 hrs
[15] = Inhibition of Multidrug resistance efflux pump in Staphylococcus aureus 272123 assessed as relative fluorescence index using ethidium bromide as substrate at 25 uM by fluorescence based analysis
Enterobacter cloacae = experiment: Antibacterial activity against Enterobacter cloacae 45301 assessed as inhibition zone incubated for 24 hrs by agar plate method; format: functional
Staphylococcus aureus [16] = experiment: Antibacterial activity against Staphylococcus aureus ATCC 25923 assessed as inhibition zone incubated for 24 hrs by disc diffusion method; format: functional
[17] = system: Staphylococcus epidermidis; experiment: Antibacterial activity against Staphylococcus epidermidis ATCC 12228 assessed as inhibition zone incubated for 24 hrs by disc diffusion method; format: functional
Pseudomonas aeruginosa [18] = experiment: Antibacterial activity against Pseudomonas aeruginosa ATCC 27853 assessed as inhibition zone incubated for 24 hrs by disc diffusion method; format: functional
Klebsiella pneumoniae = experiment: Antibacterial activity against Klebsiella pneumoniae ATCC 13883 assessed as inhibition zone incubated for 24 hrs by disc diffusion method; format: functional
Escherichia coli [19] = experiment: Antibacterial activity against Escherichia coli ATCC 25922 assessed as inhibition zone incubated for 24 hrs by disc diffusion method; format: functional
[20] = system: Salmonella enterica subsp. enterica serovar Typhimurium; experiment: Inhibition of Multidrug resistance efflux pump in Salmonella enterica serovar typhimurium SL1344 (SE03) assessed as relative fluorescence index using ethidium bromide as substrate at 25 uM by fluorescence based analysis
Micrococcus luteus = experiment: Antibacterial activity against Micrococcus luteus 28001 assessed as inhibition zone incubated for 24 hrs by agar plate method; format: functional
Candida albicans [21] = experiment: Antifungal activity against Candida albicans ATCC 10231 assessed as inhibition of fungal growth incubated for 18 hrs by optical density based analysis; format: functional

SMILES | MIC (Escherichia coli [1]) [µg/mL] | MIC (Pseudomonas aeruginosa [2]) [µg/mL] | MIC (Salmonella typhimurium) [µg/mL] | MIC (Staphylococcus aureus [3]) [µg/mL] | MIC (Enterococcus faecalis [4]) [µg/mL] | MIC (Staphylococcus aureus [5]) [µg/mL] | MIC (Candida albicans [6]) [µg/mL] | MIC (Aspergillus fumigatus) [µg/mL] | MIC (Trichophyton rubrum) [µg/mL] | fold change (FC) (Enterococcus faecalis [8]) | RFU [9] | RFU [10] | inhibition at 100 µM (Staphylococcus aureus [11]) [%] | inhibition at 100 µM (Staphylococcus aureus [12]) [%] | Activity [13] [mm] | Activity (Serratia marcescens) [mm] | Activity [14] [mm] | further results
COc1cccc(/C=C2\COC/C(=C\c3cccc(OC)c3OC)C2=O)c1OC | > 64 | > 64 | > 64 | > 64 | > 64 | > 64 | > 128 | > 128 | > 128 | 32 | 0.12 | 0.44 | 0 | 46.9 | 0 | 0 | 31 | fold change (FC) (Escherichia coli [7]): 16
COC(=O)[C@H]1[C@H]2C[C@@H]3c4[nH]c5cc(OC)ccc5c4CCN3C[C@H]2C[C@@H](OC(=O)c2cc(OC)c(OC)c(OC)c2)[C@@H]1OC [RESERPINE] | – | – | – | – | – | – | – | – | – | – | – | – | 22.3 | 72.1 | – | – | – | RFU [15]: 0.35
O=C1/C(=C/c2ccccc2Br)CC/C1=C\c1ccccc1Br | – | – | – | – | – | – | – | – | – | – | – | – | – | – | – | – | – | inhibition zone (IZ) (Enterobacter cloacae): 10 mm
COc1cccc(/C=C2\CCc3ccccc3C2=O)c1 | – | – | – | – | – | – | – | – | – | – | – | – | – | – | – | – | – | inhibition zone (IZ) (Staphylococcus aureus [16]): 18 mm; inhibition zone (IZ) [17]: 15 mm; inhibition zone (IZ) (Pseudomonas aeruginosa [18]): 18 mm; inhibition zone (IZ) (Klebsiella pneumoniae): 18 mm; inhibition zone (IZ) (Escherichia coli [19]): 17 mm
COc1ccccc1/C=C1\CCc2ccccc2C1=O | > 64 | > 64 | > 64 | > 64 | > 64 | > 64 | > 128 | > 128 | > 128 | 2 | 1.32 | 0.88 | 0 | 83.3 | 0 | 0 | 48 | fold change (FC) (Escherichia coli [7]): 2
N#CC(C#N)=NNc1cccc(Cl)c1 | – | – | – | – | – | – | – | – | – | – | – | – | – | – | – | – | – | RFU [20]: 0.3
COc1cc(/C=C2\CCC/C(=C\c3cc(OC)c(OC)c(OC)c3)C2=O)cc(OC)c1OC | – | – | – | – | – | – | – | – | – | – | – | – | – | – | – | – | – | inhibition zone (IZ) (Micrococcus luteus): 9 mm; inhibition zone (IZ) (Enterobacter cloacae): 10 mm
COc1ccccc1/C=C1\CCC/C(=C\c2ccccc2OC)C1=O | > 64 | > 64 | > 64 | > 64 | > 64 | > 64 | > 128 | > 128 | > 128 | 2 | -0.31 | 0.48 | 0 | 65.9 | 0 | 0 | 0 | –
COc1cc(OC)c2c(c1)OC/C(=C\c1ccccc1)C2=O | – | – | – | – | – | – | – | – | – | – | – | – | – | – | – | – | – | MIC (Candida albicans [21]): 25 µM (≈ 7.41 µg/mL)
